Laboratory results reported in US8062995B2, “Dioxazine-substituted arylamides” (Bayer CropScience AG, priority 2005, dated 2011).

Experiments:
[1] = test system: caterpillars of the army worm (Spodoptera frugiperda); test: Spodoptera frugiperda test (SPODFR spray treatment); format: in vivo
In short: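 Compound formulated in acetone/DMF with alkylaryl polyglycol ether emulsifier, diluted in emulsifier-containing water and sprayed on maize leaf discs; after drying, discs infested with Spodoptera frugiperda caterpillars. Mortality (%) scored after a set period, 100% meaning all caterpillars killed.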

[2] = logP determination by HPLC (reversed-phase C18), EEC Directive 79/831 Annex V.A8; format: physicochemical; conditions: HPLC reversed-phase C18, 43° C., acidic range pH 2.7
Heliothis virescens = Heliothis virescens test (eggs); format: in vivo
Method: (§1) Heliothis virescens Solvents: 1% of N-methylpyrrolidone (NMP) • 1% of diacetone alcohol Dye: brilliant sulphoflavin for staining the water To produce a suitable preparation of active compound, the active compound is mixed with the stated amounts of solvents and the concentrate is diluted with stained water to the desired concentration. The eggs (Heliothis virescens) are treated with an active compound preparation of the desired concentration. After the desired period of time, the activity in % is determined. 100% means that all animals have been killed; 0% means that none of the animals have been killed.

[3] = test system: Spodoptera frugiperda larvae; test: Spodoptera frugiperda test (treatment by watering); format: in vivo
In short: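 Compound formulated in dimethylformamide with alkylaryl polyglycol ether emulsifier and diluted with water to the desired concentration. Maize plants are watered with the preparation, then infested with Spodoptera frugiperda larvae. After the set period, % larval kill is scored (100% = all killed, 0% = none).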

[4] = test system: caterpillars of the cotton bollworm (Heliothis armigera); test: Heliothis armigera test (leaf dip); format: in vivo
In short: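 Compound was formulated in dimethylformamide with alkylaryl polyglycol ether emulsifier and diluted in emulsifier-containing water. Soya bean leaves were dipped in the preparation and populated with Heliothis armigera caterpillars while still moist. Kill (%) was scored after the desired period.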

Myzus persicae = Myzus persicae test (ingestion of active compound preparation); format: in vivo
Method: Myzus persicae Test Solvents: 1% of N-methylpyrrolidone (NMP) • 1% of diacetone alcohol Dye: brilliant sulphoflavin for staining the water To produce a suitable preparation of active compound, the active compound is mixed with the stated amounts of solvents and the concentrate is diluted with stained water to the desired concentration. The Myzus persicae are provided with an active compound preparation of the desired concentration for ingestion. After the desired period of time, the activity in % is determined. 100% means that all aphids have been killed; 0% means that none of the aphids have been killed.

Aedes aegypti = Aedes aegypti test (larvae); format: in vivo
Method: as §1, with “Aedes aegypti Test Solvents:” for “Heliothis virescens Solvents:”, “The larvae (Aedes aegypti)” for “The eggs (Heliothis virescens)”, “all of the larvae” for “all animals”, “the larvae” for “the animals”

[5] = test system: larvae of the mustard beetle (Phaedon cochleariae); test: Phaedon test (sprayed Chinese cabbage discs); format: in vivo
In short: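 Compound formulated in acetone/DMF with alkylaryl polyglycol ether emulsifier, diluted in emulsifier-containing water and sprayed onto Chinese cabbage (Brassica pekinensis) leaf discs. After drying, discs infested with Phaedon cochleariae larvae; % kill scored after set time (100% = all larvae dead, 0% = none).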

[6] = test system: Diabrotica undecimpunctata; test: Diabrotica undecimpunctata (DIABUN) test (eggs); format: in vivo
Method: as §1, with “Diabrotica undecimpunctata (DIABUN)” for “Heliothis virescens”, “(Diabrotica undecimpunctata)” for “(Heliothis virescens)”

With `O=C(Nc1c(Cl)cc(Cl)cc1C1=NOCCO1)c1cc(Br)nn1-c1ncccc1Cl` [Example I-1-8] the “activity in the Spodoptera frugiperda test, spray treatment (in words)” value [1] was “good activity”, the “Kill rate after 7d in %” value ([1]; 100 g/ha, 7 d, spray treatment) was 100% and the logP [2] was 3.09. The “activity in the Heliothis virescens test (in words)” value (Heliothis virescens) was “good activity”, the “Kill rate after 6-7d in %” value (Heliothis virescens; 100 ppm, 6-7 d, eggs) was 100% and the “activity in the Spodoptera frugiperda test, watering (in words)” value [3] was “good activity”. For the same compound, the “Kill rate after 14d in %” value ([3]; 20 ppm, 14 d, treatment by watering) was 95%, the “activity in the Heliothis armigera test (in words)” value [4] was “good activity” and the “Kill rate after 7d in %” value ([4]; 20 ppm, 7 d) was 100%. The “activity in the Myzus persicae test (in words)” value (Myzus persicae) was “good activity”, the “Kill rate after 6-7d in %” value (Myzus persicae; 30 ppm, 6-7 d, ingestion) was 100% and the “activity in the Aedes aegypti test (in words)” value (Aedes aegypti) was “good activity”. For the same compound, the “Kill rate after 2-4d in %” value (Aedes aegypti; 30 ppm, 2-4 d, larvae) was 100%, the “activity in the Phaedon test (in words)” value [5] was “good activity” and the “Kill rate after 7d in %” value ([5]; 100 g/ha, 7 d) was 100%. The “activity in the Diabrotica undecimpunctata test (in words)” value [6] was “good activity” and the “Kill rate after 2-5d in %” value ([6]; 300 ppm, 2-5 d, eggs) was 100%.
